Experiments:
[1] = system: R3230AC rat mammary adenocarcinoma; test: Tumour imaging using hyperpolarised 13C-pyruvate as imaging agent (13C-MR imaging of tumour-bearing rats); assay type: in vivo
Experimental: R3230AC is a rat mammary adenocarcinoma that can be maintained in female Fischer 344 rats. To establish the animal tumour model, a frozen vial of R32030 cells containing RPMI 1640, 10% FBS and 10% DMSO was rapidly thawed in 37° C. Thereafter, the cell solution was transferred to FBS and increasing volumes of RPMI 1640 were added. Finally, the cell suspension was transferred to a 25 cm^2growth flask and put into an incubator at 37° C., 5% CO2. Growth media were changed every other day. At the day of rat infection, removal of cells was carried out either by mechanical force or by means of trypsin. Cells were washed using phosphate buffer lacking calcium and magnesium. Trypsin (0.05% trypsin in 0.02% EDTA) was added for 2-5 min. Then, 5 ml FBS was added and the cells were transferred into a beaker containing RPMI 1640 with FCS and antibiotics (100 IU/ml penicillin, 100 IU/ml streptomycin and 2.5 µg/ml amphotericin […]). The cell solution was centrifugated and the cell pellet was resuspended in 20 ml RPMI with FBS and antibiotics, centrifugation and resuspension was repeated. The cells were then aliquoted to vials containing 4×10^6 cells/ml RPMI 1640. To obtain donor tumours, female Fischer 344 rats (Charles River, 180-200 g) were anaesthetised and 0.3 ml of the cell suspension was subcutaneously injected in the inguinal region on both sides. 15 and 22 days later, pieces of tumour were prepared as described in F. A. Burgener et al., Invest Radiol 2216 (1987), 472-478; S. Saini et al., J. Magn. Reson, 129/1 (1997), 35-43). Two incisions were made on the ventral abdomen of recipient female Fischer rats. A tumour piece was inserted into each pocket and the incisions were closed. Rats were brought to imaging 12-14 days after tumour engrafting.
Weighed rats were anaesthetised using isoflurane (2-3%) and kept on a heated table to ensure a body temperature of about 37° C. A catheter was introduced into the tail vein and into the arteria carotis communis sinistra. The rats were transported to the MR machine and placed on a home-built pad that was heated to approx. 37° C. by means of circulating FC-104 Fluorinert. This liquid will not give rise to background signals in ^1H- and ^13C-MR imaging. Anaesthesia was continued by means of 1-2% isoflurane delivered via a long tube to an open-breathing system at a rate of 0.4 L/min. The arterial catheter was connected via a T-tube to a pressure recorder and a pump delivering saline (rate […]) to prevent catheter clotting. Rats were positioned in a rat MR coil (Rapid Biomedical, Germany) and imaging using a standard proton MR imaging sequence to get anatomical information and to determine the location of the tumour.
Based on the proton frequency found by the MR system the MR frequency for ^13C1-alanine was calculated according to the following equation: Frequency ^13C1-alanine=0.25144×[(system frequency proton×1.00021)−0.000397708]
The frequency calculated positioned the MR signal arising from ^13C1-alanine on resonance with ^13C1-lactate on the left and ^13C1-pyruvate resonating on the right of ^13C1-alanine. An unlocalised MR spectroscopy sequence was run to ensure that the ^13C-MR coil and the system MR frequency had been set up correctly. The ^13C-image location was positioned to cover the tumour (slice thickness 10 mm, in plane pixel size 5×5 mm^2). In the reconstruction phase, the image data was zero-filled to result in 2.5×2.5×10 mm^3 resolution. ^13C1-pyruvate in TRIS buffer (90 mM) was injected in a dose of 10 ml/kg during a period of 12 s with a minimum volume of 2 ml into the tail vein and 30 s after the start of the injection (i.e. 18 s after finishing the injection), the chemical shift ^13C-MR sequence was started. 5.4 Analysis of the MR Imaging Data
In the reconstruction phase, the matrix was zero-filled to 32×32, a mathematical operation that helps to improve the spatial resolution. […]

[2] = DNP polarisation of 13C1-pyruvic acid, solid-state 13C-NMR DNP enhancement; assay type: physicochemical; conditions: 20 mM Tris(8-carboxy-2,2,6,6-tetra(hydroxyethoxy)methyl-benzo[1,2-d:4,5-d']bis(1,3)dithiole-4-yl)methyl sodium salt; 1.2 K, 3.35 T, 93.950 GHz; from thermal equilibrium and enhanced NMR signal
Experimental: A 20 mM solution was prepared by dissolving Tris(8-carboxy-2,2,6,6-tetra(hydroxyethoxy)methyl-benzo[1,2-d:4,5-d′]-bis-(1,3)-dithiole-4-yl)methyl sodium salt in ^13C1-pyruvic acid (83.1 mg). The sample was mixed to homogeneity, placed in a sample cup and inserted in the DNP polariser. The sample was polarised under DNP conditions at 1.2 K in a 3.35 T magnetic field under irradiation with microwave (93.950 GHz). The ^13C-NMR signal from the sample was acquired using a Varian Inova-200 NMR spectrometer. The DNP enhancement was calculated from a measurement of the thermal equilibrium ^13C-NMR signal and the enhanced NMR signal. 16% ^13C polarisation was obtained.

[3] = rat, R3230AC tumours, 90 mM in TRIS, 10 ml/kg i.v. tail vein, imaging 30 s after start of injection

Row | Structure (SMILES) | overall rate of success ([1]; discrimination of tumour and healthy tissue, 26 tumours in 17 rats) | pH ([1]; injected solution, mean ±SD) | average polarisation at the time of injection ([1]; mean ±SD, solution in TRIS buffer injected into rats) | metabolic contrast in the tumour area, lactate signal [1, 3] | metabolic contrast in the tumour area, lactate signal, alanine corrected [1, 3] | metabolic contrast in the tumour area, lactate signal, pyruvate corrected [1, 3] | 13C polarisation [2]
1 | CC(=O)[13C](=O)[O-].[Na+] [^13C1-pyruvate, sodium ^13C1-pyruvate] | 100% | 8.08±0.14 | 21.2±2.9% | 24 out of 26 | 26 out of 26 | 26 out of 26 | –
2 | CC(=O)[13C](=O)O [^13C1-pyruvic acid] | – | – | – | – | – | – | 16%
